This note sets out measurements from patent US20220323406A1, “METHODS AND COMPOSITIONS FOR DIFFERENTIATING STEM CELLS” (Massachusetts Institute of Technology, priority 2019, published 2022).

The test system of assay [1] is ENR+CD organoids (ISC to Paneth cell differentiation). Briefly: Primary screen: basal (non-stimulated) lysozyme secretion LYZ.NS, 2.5-D 384-well ENR+CD organoid differentiation. Format: cell-based, mouse. From the text:
(§1) High-throughput screening.

The subject of another assay is ENR+CD organoids. Briefly: Primary screen: ATP (CellTiter-Glo 3D, CTG) cell number/viability, 2.5-D 384-well ENR+CD organoids.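 As to all read-outs here: compounds given at plating and again on day 3 over a 6-day differentiation from ENR+CV stem-cell-enriched precursors, ATP measured on day 6, plate median as control.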 To be noted: primary screen; for Z.CTG: standard z score. For orientation: In ATP-based viability assays light output follows the ATP content of the culture.
Assay [2] concerns ENR+CD organoids (ISC to Paneth cell differentiation). Briefly: Primary screen: CCh-stimulated lysozyme secretion LYZ.S, 2.5-D 384-well ENR+CD organoid differentiation. Format: cell-based, mouse. The conditions noted are these: primary screen.
Description: as §1

Setting [3] is: primary screen, dose 0.08 uM, FC relative to plate median.
The mark [4] stands for this setting: primary screen, dose 0.08 uM, standard z score.
Setting [5] is: primary screen, dose 0.40 uM, FC relative to plate median.
Where [6] appears, read: primary screen, dose 0.40 uM, standard z score.
Setting [7] is: primary screen, dose 2.00 uM, FC relative to plate median.
Where [8] appears, read: primary screen, dose 2.00 uM, standard z score.
[9] abbreviates: primary screen, dose 10.00 uM, FC relative to plate median.
Where [10] appears, read: primary screen, dose 10.00 uM, standard z score.
[11] abbreviates: dose 0.08 uM, FC relative to plate median.
The mark [12] stands for this setting: dose 0.40 uM, FC relative to plate median.
Setting [13] is: dose 2.00 uM, FC relative to plate median.
Where [14] appears, read: dose 10.00 uM, FC relative to plate median.

SMILES strings stand for the structures.

On to `CC1=C(C(=O)Nc2cc3cn[nH]c3cc2F)C(c2ccc(C(F)(F)F)cc2)CC(=O)N1` (stereo not drawn) [GSK429286A], for which the “Dose.FC.LYZ.NS (log2 fold change)” value in assay [1] (primary screen, dose 0.08 uM) turned out to be 0.137; in assay [1] (primary screen, dose 0.40 uM), 0.128; in assay [1] (primary screen, dose 2.00 uM), 0.140; in assay [1] (primary screen, dose 10.00 uM), 0.059. Besides, the “Z.LYZ.NS (standard z score)” value in assay [1] (primary screen, dose 0.08 uM) is on record as 1.197; in assay [1] (primary screen, dose 0.40 uM), 1.117; in assay [1] (primary screen, dose 2.00 uM) it was 1.222; in assay [1] (primary screen, dose 10.00 uM), 0.517. Besides, the “Dose.FC.CTG (log2 fold change)” value in the assay with ENR+CD organoids (dose 0.08 uM) was found to be 0.527; in the assay with ENR+CD organoids (dose 0.40 uM) it was 0.545; in the assay with ENR+CD organoids (dose 2.00 uM) it was 0.488; in the assay with ENR+CD organoids (dose 10.00 uM), 0.370. For the same compound, the “Z.CTG (standard z score)” value is recorded as 1.260 in the assay with ENR+CD organoids (dose 0.08 uM), 1.302 in the assay with ENR+CD organoids (dose 0.40 uM), 1.166 in the assay on ENR+CD organoids (dose 2.00 uM) and 0.883 in the assay with ENR+CD organoids (dose 10.00 uM). The “Dose.FC.LYZ.S (log2 fold change)” value is 0.247 in assay [2] (dose 0.08 uM), 0.283 in assay [2] (dose 0.40 uM), 0.245 in assay [2] (dose 2.00 uM) and 0.099 in assay [2] (dose 10.00 uM).

With `Cc1c(Cl)cccc1Nc1ccccc1C(=O)O` [Tolfenamic Acid], the Dose.FC.LYZ.NS in assay [1] (primary screen, dose 0.08 uM) was 0.028 log2 fold change; in assay [1] (primary screen, dose 0.40 uM), 0.023 log2 fold change; in assay [1] (primary screen, dose 2.00 uM), 0.107 log2 fold change; in assay [1] (primary screen, dose 10.00 uM) it was −0.039 log2 fold change. Also, the “Z.LYZ.NS (standard z score)” value in assay [1] (primary screen, dose 0.08 uM) was 0.242; in assay [1] (primary screen, dose 0.40 uM) it was 0.200; in assay [1] (primary screen, dose 2.00 uM), 0.927; in assay [1] (primary screen, dose 10.00 uM) it was −0.343. In addition, the Dose.FC.CTG is 0.196 log2 fold change with ENR+CD organoids (dose 0.08 uM), −0.003 log2 fold change in the assay with ENR+CD organoids (dose 0.40 uM), −0.159 log2 fold change in the assay with ENR+CD organoids (dose 2.00 uM) and −0.115 log2 fold change in the assay on ENR+CD organoids (dose 10.00 uM). Moreover, the Dose.FC.LYZ.S in assay [2] (dose 0.08 uM) was 0.118 log2 fold change; in assay [2] (dose 0.40 uM), 0.052 log2 fold change; in assay [2] (dose 2.00 uM) it was −0.023 log2 fold change; in assay [2] (dose 10.00 uM), −0.064 log2 fold change.

Consider `CN(C)CCCCC(=O)Nc1ccc(NC(=S)NC(=O)c2ccc(C(C)(C)C)cc2)cc1` [Tenovin-6], for which the Dose.FC.LYZ.NS in assay [1] (primary screen, dose 0.08 uM) is listed as 0.121 log2 fold change; in assay [1] (primary screen, dose 0.40 uM) it was −0.053 log2 fold change; in assay [1] (primary screen, dose 2.00 uM), −0.194 log2 fold change; in assay [1] (primary screen, dose 10.00 uM), −0.192 log2 fold change. For the same compound, the “Z.LYZ.NS (standard z score)” value is 1.050 in assay [1] (primary screen, dose 0.08 uM); −0.463 in assay [1] (primary screen, dose 0.40 uM); −1.686 in assay [1] (primary screen, dose 2.00 uM); −1.671 in assay [1] (primary screen, dose 10.00 uM). The Dose.FC.CTG is listed as 0.069 log2 fold change in the assay with ENR+CD organoids (dose 0.08 uM), −0.506 log2 fold change with ENR+CD organoids (dose 0.40 uM), −1.111 log2 fold change in the assay on ENR+CD organoids (dose 2.00 uM) and −1.429 log2 fold change with ENR+CD organoids (dose 10.00 uM). Moreover, the “Z.CTG (standard z score)” value in the assay on ENR+CD organoids (dose 0.08 uM) was 0.165; in the assay on ENR+CD organoids (dose 0.40 uM) it was −1.209; in the assay on ENR+CD organoids (dose 2.00 uM), −2.654; with ENR+CD organoids (dose 10.00 uM), −3.414. The Dose.FC.LYZ.S in assay [2] (dose 0.08 uM) was 0.028 log2 fold change; in assay [2] (dose 0.40 uM), −0.109 log2 fold change; in assay [2] (dose 2.00 uM), −0.328 log2 fold change; in assay [2] (dose 10.00 uM), −0.344 log2 fold change.

As for `Cc1cnc(NC(=O)Nc2cc(Br)c(C)cc2OC[C@@H]2CNCCO2)cn1` [LY2603618], the “Dose.FC.LYZ.NS (log2 fold change)” value is reported as −0.005 in assay [1] (primary screen, dose 0.08 uM); −0.091 in assay [1] (primary screen, dose 0.40 uM); −0.193 in assay [1] (primary screen, dose 2.00 uM); −0.233 in assay [1] (primary screen, dose 10.00 uM). In addition, the “Z.LYZ.NS (standard z score)” value is −0.046 in assay [1] (primary screen, dose 0.08 uM); −0.791 in assay [1] (primary screen, dose 0.40 uM); −1.685 in assay [1] (primary screen, dose 2.00 uM); −2.026 in assay [1] (primary screen, dose 10.00 uM). Further, the “Dose.FC.CTG (log2 fold change)” value with ENR+CD organoids (dose 0.08 uM) is on record as −0.004; in the assay with ENR+CD organoids (dose 0.40 uM) it was −0.238; in the assay with ENR+CD organoids (dose 2.00 uM) it was −0.396; with ENR+CD organoids (dose 10.00 uM) it was −0.983. The “Z.CTG (standard z score)” value in the assay on ENR+CD organoids (dose 0.08 uM) is recorded as −0.010; in the assay on ENR+CD organoids (dose 0.40 uM), −0.567; in the assay on ENR+CD organoids (dose 2.00 uM), −0.946; in the assay with ENR+CD organoids (dose 10.00 uM), −2.347. Moreover, the “Dose.FC.LYZ.S (log2 fold change)” value is 0.009 in assay [2] (dose 0.08 uM), −0.147 in assay [2] (dose 0.40 uM), −0.269 in assay [2] (dose 2.00 uM) and −0.356 in assay [2] (dose 10.00 uM).

In the case of `O=C(/C=C/c1ccc(O)c(O)c1)OCCc1ccccc1` [Caffeic Acid Phenethyl Ester], the Dose.FC.LYZ.NS was 0.053 log2 fold change in assay [1] (primary screen, dose 0.08 uM); 0.167 log2 fold change in assay [1] (primary screen, dose 0.40 uM); 0.090 log2 fold change in assay [1] (primary screen, dose 2.00 uM); −0.026 log2 fold change in assay [1] (primary screen, dose 10.00 uM). The Z.LYZ.NS was 0.465 in assay [1] (primary screen, standard z score, dose 0.08 uM); 1.453 in assay [1] (primary screen, standard z score, dose 0.40 uM); 0.781 in assay [1] (primary screen, standard z score, dose 2.00 uM); −0.227 in assay [1] (primary screen, standard z score, dose 10.00 uM). Besides, the Dose.FC.CTG in the assay on ENR+CD organoids (dose 0.08 uM) is 0.262 log2 fold change; with ENR+CD organoids (dose 0.40 uM) it was −0.011 log2 fold change; in the assay on ENR+CD organoids (dose 2.00 uM), −0.064 log2 fold change; in the assay with ENR+CD organoids (dose 10.00 uM) it was −0.511 log2 fold change. The Dose.FC.LYZ.S in assay [2] (dose 0.08 uM) is 0.189 log2 fold change; in assay [2] (dose 0.40 uM), 0.070 log2 fold change; in assay [2] (dose 2.00 uM), −0.021 log2 fold change; in assay [2] (dose 10.00 uM) it was −0.117 log2 fold change.

For the compound `Oc1c2ccccc2c2c3c(cccc13)N=N2` [SP600125], the Dose.FC.LYZ.NS is 0.135 log2 fold change in assay [1] (setting [3]), 0.027 log2 fold change in assay [1] (setting [5]), 0.152 log2 fold change in assay [1] (setting [7]) and 0.022 log2 fold change in assay [1] (setting [9]). Besides, the Z.LYZ.NS in assay [1] (setting [4]) is given as 1.174; in assay [1] (setting [6]), 0.232; in assay [1] (setting [8]), 1.321; in assay [1] (setting [10]) it was 0.187. Also, the Dose.FC.CTG is listed as 0.197 log2 fold change with ENR+CD organoids (setting [11]), 0.145 log2 fold change with ENR+CD organoids (setting [12]), 0.103 log2 fold change with ENR+CD organoids (setting [13]) and −0.020 log2 fold change in the assay with ENR+CD organoids (setting [14]). Further, the Dose.FC.LYZ.S in assay [2] (setting [11]) is 0.188 log2 fold change; in assay [2] (setting [12]), 0.092 log2 fold change; in assay [2] (setting [13]) it was 0.090 log2 fold change; in assay [2] (setting [14]), 0.084 log2 fold change.

As to `COc1cc(Br)c(Nc2nc(-c3c(C)nc4ncccn34)cs2)c(Br)c1` [PTC-209], the Dose.FC.LYZ.NS in assay [1] (setting [3]) is given as 0.034 log2 fold change; in assay [1] (setting [5]), −0.058 log2 fold change; in assay [1] (setting [7]), −0.201 log2 fold change; in assay [1] (setting [9]), −0.227 log2 fold change. Further, the Z.LYZ.NS in assay [1] (setting [4]) is recorded as 0.294; in assay [1] (setting [6]) it was −0.509; in assay [1] (setting [8]), −1.753; in assay [1] (setting [10]), −1.975. For the same compound, the Dose.FC.CTG with ENR+CD organoids (setting [11]) was −0.108 log2 fold change; in the assay with ENR+CD organoids (setting [12]), −0.207 log2 fold change; in the assay with ENR+CD organoids (setting [13]), −1.422 log2 fold change; with ENR+CD organoids (setting [14]), −1.553 log2 fold change. In addition, the Z.CTG in the assay on ENR+CD organoids (dose 0.08 uM) is recorded as −0.259; in the assay on ENR+CD organoids (dose 0.40 uM), −0.495; with ENR+CD organoids (dose 2.00 uM), −3.397; in the assay on ENR+CD organoids (dose 10.00 uM), −3.708. Moreover, the Dose.FC.LYZ.S in assay [2] (setting [11]) is recorded as 0.007 log2 fold change; in assay [2] (setting [12]) it was 0.045 log2 fold change; in assay [2] (setting [13]), −0.289 log2 fold change; in assay [2] (setting [14]) it was −0.300 log2 fold change.

As for `Cc1[nH]c(/C=C2\C(=O)Nc3ccc(S(=O)(=O)N(C)c4cccc(Cl)c4)cc32)c(C)c1C(=O)N1CCN(C)CC1` [SU11274], the Dose.FC.LYZ.NS in assay [1] (setting [3]) is 0.084 log2 fold change; in assay [1] (setting [5]), 0.120 log2 fold change; in assay [1] (setting [7]), 0.005 log2 fold change; in assay [1] (setting [9]) it was −0.207 log2 fold change. Moreover, the Z.LYZ.NS in assay [1] (setting [4]) is 0.735; in assay [1] (setting [6]) it was 1.043; in assay [1] (setting [8]), 0.047; in assay [1] (setting [10]) it was −1.804. The Dose.FC.CTG is reported as 0.357 log2 fold change with ENR+CD organoids (setting [11]), 0.270 log2 fold change with ENR+CD organoids (setting [12]), 0.058 log2 fold change in the assay with ENR+CD organoids (setting [13]) and −0.818 log2 fold change in the assay with ENR+CD organoids (setting [14]). Besides, the Dose.FC.LYZ.S in assay [2] (setting [11]) is given as 0.115 log2 fold change; in assay [2] (setting [12]), 0.298 log2 fold change; in assay [2] (setting [13]) it was 0.008 log2 fold change; in assay [2] (setting [14]) it was −0.300 log2 fold change.
